For 19 molecules, T/C results are on record in PubChem BioAssay AID248 (DTP/NCI, 2004).

Values joined by “and” are separate entries in the source; they are usually repeats but may differ in a detail not shown here. Equal entries are not always repeated. Inconclusive results and toxic doses are left out.

The test deals with L1210 leukemia ip in BDF1 mice, survival T/C. Put plainly: NCI In Vivo Anticancer Drug Screen. Data for tumor model L1210 Leukemia (intraperitoneal) in B6D2F1 (BDF1) mice. As to conditions: endpoint: mean survival time, higher = longer survival. The procedure, abridged:
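Read-out is survival time, reported as the treated-group measurement over the vehicle-control measurement.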

[1] abbreviates: dose: 100.0 mg/kg/injection, schedule: Q01DX009 (ip), vehicle: saline with Tween-80.
The mark [2] stands for this setting: dose: 200.0 mg/kg/injection, schedule: Q01DX009 (ip), vehicle: saline with Tween-80.
[3] abbreviates: dose: 400.0 mg/kg/injection, schedule: Q01DX009 (ip), vehicle: saline with Tween-80.
Where [4] appears, read: dose: 200.0 mg/kg/injection, schedule: Q04DX002 (ip), vehicle: saline with Tween-80.
Setting [5] is: dose: 400.0 mg/kg/injection, schedule: Q04DX002 (ip), vehicle: saline with Tween-80.
[6] abbreviates: dose: 100.0 mg/kg/injection, schedule: Q04DX003 (ip), vehicle: saline with Tween-80.
The mark [7] stands for this setting: dose: 200.0 mg/kg/injection, schedule: Q04DX003 (ip), vehicle: saline with Tween-80.
Setting [8] is: dose: 400.0 mg/kg/injection, schedule: Q04DX003 (ip), vehicle: saline with Tween-80.
The mark [9] stands for this setting: dose: 25.0 mg/kg/injection, schedule: Q01DX009 (ip), vehicle: saline with Tween-80.
[10] abbreviates: dose: 50.0 mg/kg/injection, schedule: Q01DX009 (ip), vehicle: saline with Tween-80.
Setting [11] is: dose: 100.0 mg/kg/injection, schedule: Q04DX002 (ip), vehicle: saline with Tween-80.
Where [12] appears, read: dose: 50.0 mg/kg/injection, schedule: Q01DX001 (ip), vehicle: saline.
Setting [13] is: dose: 100.0 mg/kg/injection, schedule: Q01DX001 (ip), vehicle: saline.
Setting [14] is: dose: 200.0 mg/kg/injection, schedule: Q01DX001 (ip), vehicle: saline.
Where [15] appears, read: dose: 400.0 mg/kg/injection, schedule: Q01DX001 (ip), vehicle: saline.

Consider `Cc1c(CC#N)cc(C)c2c3c([nH]c12)-c1ccccc1CC3`, for which the T/C was 102 % of control (dose: 50.0 mg/kg/injection, schedule: Q04DX002 (ip), vehicle: Klucel (hydroxypropylcellulose) (HPC)); 106 % of control (dose: 100.0 mg/kg/injection, schedule: Q04DX002 (ip), vehicle: Klucel (hydroxypropylcellulose) (HPC)); 102 % of control (dose: 200.0 mg/kg/injection, schedule: Q04DX002 (ip), vehicle: Klucel (hydroxypropylcellulose) (HPC)); 104 % of control (dose: 400.0 mg/kg/injection, schedule: Q04DX002 (ip), vehicle: Klucel (hydroxypropylcellulose) (HPC)).
With `O=NN(CCCl)C(=O)Nc1ccc(S(=O)(=O)c2ccc(NC(=O)N(CCCl)N=O)cc2)cc1`, the T/C was 184 % of control (dose: 100.0 mg/kg/injection, schedule: Q01DX009 (ip), vehicle: carboxymethylcellulose (CMC)); 152 % of control (dose: 118.0 mg/kg/injection, schedule: Q01DX009 (ip), vehicle: carboxymethylcellulose (CMC)); 156 % of control (dose: 177.0 mg/kg/injection, schedule: Q01DX001 (ip), vehicle: carboxymethylcellulose (CMC)); 192 % of control (dose: 200.0 mg/kg/injection, schedule: Q01DX009 (ip), vehicle: carboxymethylcellulose (CMC)); 159 % of control (dose: 266.0 mg/kg/injection, schedule: Q01DX001 (ip), vehicle: carboxymethylcellulose (CMC)); 170 % of control (dose: 266.0 mg/kg/injection, schedule: Q01DX009 (ip), vehicle: carboxymethylcellulose (CMC)). For the same molecule, the T/C (dose: 400.0 mg/kg/injection, schedule: Q01DX009 (ip), vehicle: carboxymethylcellulose (CMC)) is 173 % of control and 186 % of control; the T/C (dose: 600.0 mg/kg/injection, schedule: Q01DX001 (ip), vehicle: carboxymethylcellulose (CMC)) is 161 % of control and 172 % of control.
As to `CC12C(=O)NC(=O)N3CCCN4C(=O)NC(=O)C1(C)C4C32` (configuration not stated), the T/C is 94 % of control (dose: 75.0 mg/kg/injection, schedule: Q01DX001 (ip), vehicle: saline); 97 % of control (dose: 150.0 mg/kg/injection, schedule: Q01DX001 (ip), vehicle: saline); 100 % of control (dose: 300.0 mg/kg/injection, schedule: Q01DX001 (ip), vehicle: saline).
Turning to `O=C(O)c1cc(C(=O)O)c(C(=O)O)cc1C(=O)O`, the T/C is 96 % of control under setting [1], 91 % of control under setting [2] and 94 % of control under setting [3].
For the molecule `COc1ccccc1C(=Nc1ccccc1)N(O)c1ccccc1`, the T/C is 93 % of control (dose: 2.5 mg/kg/injection, schedule: Q01DX009 (ip), vehicle: saline with Tween-80) and 103 % of control (dose: 5.0 mg/kg/injection, schedule: Q01DX009 (ip), vehicle: saline with Tween-80).
`CCOC(=O)C1C(=O)C=C(c2ccccc2)CC1c1ccccc1` (configuration not stated): the T/C under setting [4] was 90 % of control and the T/C under setting [5] is 97 % of control.
Turning to `CC(CCOS(C)(=O)=O)OS(C)(=O)=O` (configuration not stated), the T/C was 112 % of control under setting [6], 107 % of control under setting [7] and 88 % of control under setting [8].
`Cc1ccc(S(=O)(=O)NNC(=O)C2(C)CC2(C)C(=O)O)cc1` (configuration not stated): the T/C is 100 % of control (dose: 100.0 mg/kg/injection, schedule: Q01DX001 (ip), vehicle: Klucel (hydroxypropylcellulose) (HPC)); 91 % of control (dose: 100.0 mg/kg/injection, schedule: Q04DX003 (ip), vehicle: Klucel (hydroxypropylcellulose) (HPC)); 96 % of control under setting [6]; 93 % of control (dose: 200.0 mg/kg/injection, schedule: Q01DX001 (ip), vehicle: Klucel (hydroxypropylcellulose) (HPC)); 89 % of control (dose: 200.0 mg/kg/injection, schedule: Q04DX003 (ip), vehicle: Klucel (hydroxypropylcellulose) (HPC)); 93 % of control under setting [7]. Moreover, the T/C is, setting by setting: (dose: 400.0 mg/kg/injection, schedule: Q01DX001 (ip), vehicle: Klucel (hydroxypropylcellulose) (HPC)) 101 % of control; (dose: 400.0 mg/kg/injection, schedule: Q04DX003 (ip), vehicle: Klucel (hydroxypropylcellulose) (HPC)) 100 % of control; under setting [8], 86 % of control.
Consider `O=C(O)c1cccc([N+](=O)[O-])c1I`, for which the T/C reads like this: under setting [1], 100 % of control; under setting [2], 101 % of control; under setting [3], 97 % of control.
As to `CSc1ccnc2c1cnn2C1OC(CO)C(O)C1O` (configuration not stated), the T/C by setting is: (dose: 50.0 mg/kg/injection, schedule: Q01DX005 (ip), vehicle: other) 109 % of control; (dose: 100.0 mg/kg/injection, schedule: Q01DX005 (ip), vehicle: other) 102 % of control; (dose: 200.0 mg/kg/injection, schedule: Q01DX005 (ip), vehicle: other) 98 % of control.
For `O=C(O)CN1C(=O)c2ccccc2C1=O`, the T/C is 91 % of control under setting [9]; 98 % of control under setting [10]; 98 % of control under setting [1]; 100 % of control under setting [11]; 103 % of control under setting [4]; 95 % of control under setting [5].
For `CCC1=NNC(=O)C1(Br)Br`, the T/C (dose: 5.0 mg/kg/injection, schedule: Q01DX001 (ip), vehicle: saline) is 105 % of control; the T/C (dose: 10.0 mg/kg/injection, schedule: Q01DX001 (ip), vehicle: saline) was 100 % of control; the T/C (dose: 20.0 mg/kg/injection, schedule: Q01DX001 (ip), vehicle: saline) was 100 % of control; the T/C (dose: 40.0 mg/kg/injection, schedule: Q01DX001 (ip), vehicle: saline) was 97 % of control; the T/C (dose: 80.0 mg/kg/injection, schedule: Q01DX001 (ip), vehicle: saline) is 103 % of control.
For `CN(C)c1nc2c(=O)[nH]cnc2n1C1OC(CO)C(O)C1O` (configuration not stated), the T/C is 95 % of control under setting [12], 93 % of control under setting [13], 112 % of control under setting [14] and 95 % of control under setting [15].
Turning to `Cc1ccc(Br)cc1C(c1cc(Br)ccc1C)C(O)C(O)C(O)C(O)CO` (configuration not stated), the T/C is, setting by setting: under setting [12], 106 % of control; under setting [13], 106 % of control; under setting [14], 110 % of control; under setting [15], 98 % of control.
As to `CN(CCC(=O)O)S(=O)(=O)c1ccccc1`, the T/C was 103 % of control under setting [13], 97 % of control under setting [14] and 89 % of control under setting [15].
As for `Cc1cc(S(=O)(=O)NO)c(N)cc1Cl`, the T/C runs as follows: (dose: 50.0 mg/kg/injection, schedule: Q01DX009 (ip), vehicle: Klucel (hydroxypropylcellulose) (HPC)) 108 % of control; (dose: 100.0 mg/kg/injection, schedule: Q01DX009 (ip), vehicle: Klucel (hydroxypropylcellulose) (HPC)) 99 % of control; (dose: 200.0 mg/kg/injection, schedule: Q01DX009 (ip), vehicle: Klucel (hydroxypropylcellulose) (HPC)) 99 % of control.
Regarding `C1N2CN3CN1CN(C2)C3`, the T/C by setting is: (dose: 50.0 mg/kg/injection, schedule: Q01DX001 (ip), vehicle: carboxymethylcellulose (CMC)) 104 % of control; (dose: 100.0 mg/kg/injection, schedule: Q01DX001 (ip), vehicle: carboxymethylcellulose (CMC)) 104 % of control; (dose: 100.0 mg/kg/injection, schedule: Q04DX002 (ip), vehicle: saline) 100 % of control; (dose: 200.0 mg/kg/injection, schedule: Q01DX001 (ip), vehicle: carboxymethylcellulose (CMC)) 112 % of control; (dose: 200.0 mg/kg/injection, schedule: Q04DX002 (ip), vehicle: saline) 100 % of control; (dose: 400.0 mg/kg/injection, schedule: Q01DX001 (ip), vehicle: carboxymethylcellulose (CMC)) 101 % of control. For the same molecule, the T/C (dose: 400.0 mg/kg/injection, schedule: Q04DX002 (ip), vehicle: saline) is 114 % of control.
For the molecule `Cn1c(=O)c2[nH]c(C3CCCC3)nc2n(C)c1=O`, the T/C under setting [12] was 96 % of control, the T/C under setting [13] was 96 % of control and the T/C under setting [14] was 96 % of control.
For the molecule `O=C1C(O)=C(c2ccccc2C(=O)O)C(=O)C(O)=C1c1ccccc1C(=O)O`, the T/C reads like this: under setting [9], 101 % of control; under setting [10], 101 % of control; (dose: 50.0 mg/kg/injection, schedule: Q04DX002 (ip), vehicle: saline with Tween-80) 102 % of control; under setting [1], 96 % of control; under setting [11], 98 % of control and 109 % of control; under setting [4], 102 % of control and 113 % of control. Under setting [5], the T/C was 98 % of control and 104 % of control.
